From ChEMBL document CHEMBL3046233, “Synthesis and anticonvulsant activity of 4-(2-phenoxyphenyl)semicarbazones” (Med Chem Res, 2009)

Legend:
Rattus norvegicus [1] = test: Anticonvulsant activity in Rattus norvegicus Wistar (rat) pentylenetetrazole-induced kindling model assessed as seizure time at 30 mg/kg, ip administered 30 min before pentylenetetrazole challenge; format: functional; conditions: route intraperitoneal
Rattus norvegicus [2] = test: Anticonvulsant activity in Rattus norvegicus Wistar (rat) pentylenetetrazole-induced kindling model assessed as seizure latency time at 30 mg/kg, ip administered 30 min before pentylenetetrazole challenge; format: functional; conditions: route intraperitoneal
Rattus norvegicus [3] = test: Neurotoxicity in Rattus norvegicus Wistar (rat) at 300 mg/kg, ip by rotarod test; format: toxicity, organism-based; parameters: dose 300 mg/kg, route intraperitoneal; conditions: in vivo
Rattus norvegicus [4] = test: Anticonvulsant activity in Rattus norvegicus Wistar (rat) pentylenetetrazole-induced kindling model assessed as seizure time at 200 mg/kg, ip administered 30 min before pentylenetetrazole challenge; format: functional; conditions: route intraperitoneal
Rattus norvegicus [5] = test: Anticonvulsant activity in Rattus norvegicus Wistar (rat) pentylenetetrazole-induced kindling model assessed as seizure latency time at 200 mg/kg, ip administered 30 min before pentylenetetrazole challenge; format: functional; conditions: route intraperitoneal
Rattus norvegicus [6] = test: Anticonvulsant activity in Rattus norvegicus Wistar (rat) pentylenetetrazole-induced kindling model assessed as seizure latency time at 100 mg/kg, ip administered 30 min before pentylenetetrazole challenge; format: functional; conditions: route intraperitoneal
Rattus norvegicus [7] = test: Anticonvulsant activity in Rattus norvegicus Wistar (rat) pentylenetetrazole-induced kindling model assessed as seizure time at 100 mg/kg, ip administered 30 min before pentylenetetrazole challenge; format: functional; conditions: route intraperitoneal

| Compound | Time (Rattus norvegicus [1]) [s] | Time (Rattus norvegicus [2]) [s] | further results |
| --- | --- | --- | --- |
| C/C(=N\NC(=O)Nc1ccccc1Oc1ccccc1)c1ccccc1[N+](=O)[O-] | 40.6 | 639.2 |  |
| C/C(=N\NC(=O)Nc1ccccc1Oc1ccccc1)c1cccc([N+](=O)[O-])c1 | 32.2 | 832.2 |  |
| C/C(=N\NC(=O)Nc1ccccc1Oc1ccccc1)c1ccc([N+](=O)[O-])cc1 | 64.25 | 404.25 |  |
| C/C(=N\NC(=O)Nc1ccccc1Oc1ccccc1)c1ccc(C)cc1 | 71.42 | 405.42 |  |
| C/C(=N\NC(=O)Nc1ccccc1Oc1ccccc1)c1ccccc1O | 33.2 | 532.4 |  |
| CSc1ccc(/C(C)=N/NC(=O)Nc2ccccc2Oc2ccccc2)cc1 | 75 | 189.4 |  |
| COc1ccc(OC)c(/C(C)=N/NC(=O)Nc2ccccc2Oc2ccccc2)c1 | 69.16 | 110 |  |
| O=C(N/N=C/c1ccccc1)Nc1ccccc1Oc1ccccc1 | 48.5 | 508.5 |  |
| O=C(N/N=C/c1cccc(Br)c1)Nc1ccccc1Oc1ccccc1 | 81 | 229.33 |  |
| O=C(N/N=C/c1ccccc1[N+](=O)[O-])Nc1ccccc1Oc1ccccc1 | 36.5 | 858.66 |  |
| O=C(N/N=C/c1cccc([N+](=O)[O-])c1)Nc1ccccc1Oc1ccccc1 | 40.2 | 636.2 |  |
| O=C(N/N=C/c1ccc([N+](=O)[O-])cc1)Nc1ccccc1Oc1ccccc1 | 79.75 | 293.75 |  |
| Cc1ccc(/C=N/NC(=O)Nc2ccccc2Oc2ccccc2)cc1 | 59.28 | 418.71 |  |
| O=C(N/N=C/c1ccccn1)Nc1ccccc1Oc1ccccc1 | 23 | 1161.6 | Activity (Rattus norvegicus [3]): Non-toxic |
| O=C(N/N=C/c1cccnc1)Nc1ccccc1Oc1ccccc1 | 40.4 | 903 |  |
| O=C(N/N=C/c1ccncc1)Nc1ccccc1Oc1ccccc1 | 31.16 | 969.83 | Activity (Rattus norvegicus [3]): Non-toxic |
| CSc1ccc(/C=N/NC(=O)Nc2ccccc2Oc2ccccc2)cc1 | 66.5 | 244.75 |  |
| COc1ccc(OC)c(/C=N/NC(=O)Nc2ccccc2Oc2ccccc2)c1 | 54.83 | 150.16 |  |
| C/C(=N\NC(=O)Nc1ccccc1Oc1ccccc1)c1ccccc1 | 48.75 | 293.75 |  |
| C/C(=N\NC(=O)Nc1ccccc1Oc1ccccc1)c1cccc(Br)c1 | 85.33 | 209.66 |  |
| CCCC(CCC)C(=O)[O-].[Na+] [VALPROATE SODIUM] |  |  | Time (Rattus norvegicus [4]): 26.5 s; Time (Rattus norvegicus [5]): 900.62 s; Time (Rattus norvegicus [6]): 817.42 s; Time (Rattus norvegicus [7]): 40 s |
